The source of these data is PMC3964211, “Pharmacokinetic modeling optimizes inhibition of the ‘undruggable’ EWS-FLI1 transcription factor in Ewing Sarcoma” (Oncotarget, 2013).

Molecules are shown by their SMILES.

In the test the test system is A4573 xenograft. Put plainly: Orthotopic mouse xenograft model, A4573, IP dosing. It is filed as in vivo, SCID/bg mice. Particulars: for Tumor histology (hematoxylin and eosin): A4573 tumors, two hours following the 6th dose; for Tumor histology (hematoxylin and eosin) / Regression of tumor volume over 3 days: BID IP 400 mg/kg; for Regression of tumor volume over 3 days: A4573 xenograft, 3-day, six-dose. The procedure: A series of models that combined results from in vitro colony assays and in vivo PK data were developed to evaluate several potential dosing schemes for the mice (Supplementary Figures 1A-E). We selected an IP dosing strategy (twice daily (BID) injections of […] racemic mixture) that would maintain a 3 ¼M plasma levels for greater than 72 hours in the mice (Figure 3A). With this IP dosing regimen, xenograft growth of A4573 was 70% less in the YK-4-279 treatment group compared to vehicle control (Figure 3B, p=0.04). […] To confrm the impact of YK-4-279 treatment on xenograft growth, mice with SK-ES xenografts were treated with racemic, (S), or (R)-YK-4-279 until control tumors reached 1 cm^3. Xenograft growth was reduced for those mice receiving both racemic and (S)-YK-4-279 over the control (Figure 3D, p=0.02 and p=0.003, respectively). […] Tumors were analyzed for drug levels of racemic, (R)-, and (S)-YK-4-279. Three of four mice treated with racemic compound had tumor levels of (S)-YK-4-279 that ranged from ~12-35 ¼g eq/g, which correlated with tumor growth ratios of less than 1.0, indicating response to the drug (Figure 3F). Those animals treated with the active (S)-YK-4-279 levels had tumor levels that were below 10 ¼g eq/g (Figure 3F). Tumor levels of (R)-YK-4-279 are also provided (Supplementary Figure 1F).
In order to evaluate tumors from animals treated in a similar fashion, including resection prior to central necrosis in controls, a 3-day, six-dose, experiment was executed. Treatment was initiated with racemic, (S)-, or (R)-YK-4-279 using BID IP administration at 400 mg/kg when tumors were well established at a volume of 250 to 300 mm^3. Both ES models treated with either racemic or (S)-YK-4-279 regressed by 25–30% of tumor volume over 3 days, while tumors grew in control and (R)-YK-4-279 treated animals (Figures 4A and B). Two hours following the 6th dose, mice were euthanized for tumor analysis. […] To confirm the apoptotic cell death, sections from A4573 tumors were stained with TUNEL (Figures 4D) and there was a 3 – 4 fold increase in TUNEL-positive cells treated with (S)-YK-4-279 compared to (R)-YK-R-279 treated tumors (Figure 4E). […] Levels of each enantiomer were measured in tumor samples and (S)-YK-4-279 levels correlated with clinical regression (Supplemental Figure 2B–E).
Two million A4573 or SK-ES Ewing's sarcoma cells in 0.1 mL were injected into an orthotopic paraosseous location, adjacent to the left proximal tibia, in 5-week-old female severe combined immunodeficient-beige (SCID/bg) mice (Harlan Laboratories, Inc., Indianapolis, IN). After primary tumors reached 250 – 300 mm^3 size, mice were randomized and received intraperitoneal injection (IP) with vehicle control (0.25% Lecithin solution or DMSO), (S)-YK-4-279, (R)-YK-4-279 or racemic YK-4-279 at a dose of 400 mg/kg twice a day (BID) for 7 days in a week. The tumor volume was determined by the formula (D × d2/6) × p, where D was the longer diameter and d was the shorter diameter. Tumor volume was monitored every day by caliper until the tumor size reaches 1cm^3. Mice were euthanized and primary tumors were collected. For the pharmacodynamics study mice were randomized and received 6 doses treatment with vehicle control (0.25% Lecithin solution or DMSO), (S)-YK-4-279, (R)-YK-4-279 or racemic YK-4-279 at a dose of 400 mg/kg twice a day (BID). Mice were euthanized after 2 hours of last 6th dosing and primary tumors were collected. […]

For the compound `COc1ccc(C(=O)CC2(O)C(=O)Nc3c(Cl)ccc(Cl)c32)cc1` (centres unmarked) [YK-4-279], the “Tumor histology (hematoxylin and eosin)” value is “vacuolar cell death and nuclear fragmentation consistent with apoptosis”; the “Regression of tumor volume over 3 days” value is listed as 25–30%. Further, the “Xenograft growth less than vehicle control” value (A4573 xenograft mice, BID IP racemic mixture (375 mg/kg in text, 400 mg/kg in Figure 3 legend), p=0.04) is listed as 70%.
In the case of `COc1ccc(C(=O)C[C@]2(O)C(=O)Nc3c(Cl)ccc(Cl)c32)cc1` [(R)-YK-4-279], the “Tumor histology (hematoxylin and eosin)” value is recorded as “healthy tumor cells, but fewer mitotic figures than the DMSO control”; the “Regression of tumor volume over 3 days” value is “tumors grew”.
